We go through 4 molecules from patent US8906898B1, “Solid forms of ceftolozane” (Calixa Therapeutics, Inc., priority 2013, dated 2014).

Assay type in all cases: physicochemical
Data set [1] in a line: Stability of HPLC sample solution in refrigerated autosampler. The settings on record: 1 mg/mL in 50 mM sodium perchlorate monohydrate, pH 4.00; 4±2° C. As for the experimental part:
(§1) Ceftolozane sulfate samples are prepared at a concentration of 1 mg/mL in diluent (50 mM sodium perchlorate monohydrate, pH 4.00). The system suitability standard (SST) is prepared at a concentration of 1 mg/mL of ceftolozane sulfate containing specified impurities in diluent (50 mM sodium perchlorate monohydrate, pH 4.00). Ceftolozane samples and SST are stored in a refrigerated autosampler tray at 4±2° C. and the samples are only stable for 5 hours at this condition.

A short description of data set [2]: Comparative ceftolozane solvent stability test (purity by HPLC over 6 days).
From the text: This stability study was to evaluate stability and purity of ceftolozane sulfate in different solvent systems.
Sample 1 was a solvent system used to prepare crystalline ceftolozane sulfate from a mixture of isopropanol and water, as described in Example 2b (in the absence of ethanol). Sample 2 was solvent system used to obtain crystalline ceftolozane sulfate prepared according to the procedure of U.S. Pat. No. 7,129,232, wherein the crystals were precipitated from a mixture of ethanol and water.
Sample 1 and sample 2 were maintained for 6 days (as described in Example 2a, with continuous stirring). The purity of ceftolozane in the samples in each solvent system was measured by HPLC at day 0, day 3, and day 6.
as §1
Each sample is prepared in singlet and injected twice. Only impurities >LOD (0.008% Area) are integrated. The peak area percentage for each impurity >LOD is taken directly from the chromatogram. The mean % area of each peak is calculated and the absolute difference of any peak in the two replicates cannot be >0.030%. The purity and related substances are determined based on relative area % of each peak with respect to the total peak area of the sample. The total impurities are the sum of the individual impurities >LOD.

The nature of data set [3]: Ceftolozane precipitation time as function of solution concentration (visual assessment). As to conditions: pH 6.9, 2 to 8° C. As for the experimental part: Sterile ceftolozane compositions suitable for combination with tazobactam to form a pharmaceutical composition are prepared as a lyophilized powder from the ceftolozane sulfate comprising solid Form 2 by compounding the drug substance with excipients into an aqueous solution, aseptically filtering the solution, lyophilizing the solution, then grinding, sieving and packaging the sterile lyophilized powder. The physical stability of the bulk solution at varying concentrations was examined and concentrations up to 150 mg ceftolozane free base/g solution were found suitable. All the registration batches were prepared using 150 mg/g ceftolozane concentration in the compounding solution and this concentration is proposed for commercial manufacturing. The resulting ceftolozane composition solubility was assessed in a concentration range proposed for manufacturing, in the presence of excipients intended for use in the ceftolozane formulation for use in the pharmaceutical composition. […] Samples were adjusted to pH 6.9, held at 2 to 8° C., and visually assessed for any precipitation.

The nature of data set [4]: Water content by Karl Fischer volumetric titration with Stromboli oven. The settings on record: samples equilibrated at 130° C., mean of triplicate. The method, then: Water content of crystalline ceftolozane sulfate (prepared according to Example 2a as Form 1) was determined using a Mettler Toledo Karl Fischer volumetric titrator V30 that was connected to a Mettler Toledo Stromboli oven sample changer. AquaStar CombiTitrant 5 (EMD; Cat. No. 1.88005.1045; Lot No. 51096) was used as the titrant and the AquaStar Combi-Methanol (EMD; Cat. No 1.88009.1045; Lot No 53046) was used as the solvent. For data processing, the LabX software version 3.1.1.0 was employed. The Hydranal Water Standard for KF-Oven (Fluka; Cat. No. 34693; Lot No. SZBB010AV) that is expected to contain 5% water was weighed accurately in duplicate at or very close to 200 mg. The crystalline ceftolozane sulfate (15-18 mg) was weighed accurately in triplicate in separate 20 mL Stromboli sample vials. The vials were sealed with aluminum seals and rubber caps. A blank vial was prepared by sealing an empty 20-mL Stromboli vial with the aluminum seal and the rubber cap. The blank vial was used to determine the background moisture in air inside the vial. […] The KF titrator passed the accuracy test as the mean of the duplicate readings for the water standard was between the acceptance range of 4.80-5.20%. Water content results for crystalline ceftolozane sulfate derived from the triplicate weighings were recorded and the mean was reported. […]

Data set [5] can be described thus: Gravimetric dynamic vapour sorption (moisture sorption/desorption, hygroscopicity). The settings on record: decreasing RH, from reference point 30; 25° C. The method, then: Gravimetric dynamic vapor sorption data (FIG. 5) was obtained using a SMS DVS Intrinsic moisture sorption analyser, controlled by DVS Intrinsic Control software v1.0.0.30. The sample temperature was maintained at 25° C. by the instrument controls. The humidity was controlled by mixing streams of dry and wet nitrogen. The relative humidity was measured by a calibrated Rotronic probe, located near the sample. The weight change of the sample as a function of % RH was constantly monitored by the microbalance (accuracy ±0.005 mg). Approximately 40 mg of sample was placed in a tared mesh stainless basket under ambient conditions. Weight reference was established at the start of an experiment. Moisture sorption isotherm parameters were described as below: [table] The moisture sorption/desorption property of crystalline cefolozane sulfate form 2 is depicted in FIG. 5. A reversible hysteresis associated with around 23% w/w water between 0% and 90% relative humidity (RH) was observed. The DVS isotherm in FIG. 5 is consistent with the presence of two crystalline forms that can be interconverted as function of relative humidity. The presence of ceftolozane sulfate solid Form 1 and ceftolozane sulfate solid Form 2 in the sample tested to obtain the DVS isotherm in FIG. 5 was confirmed by a variable humidity XRPD (VH-XRPD) measurement, based on the XRPD diffraction angles disclosed for Form 1 and Form 2 of ceftolozane sulfate (as disclosed herein). Referring to DVS the isotherm plot in FIG. 5, the lower curve corresponds to ceftolozane sulfate in solid Form 2, and the upper curve is corresponds to ceftolozane sulfate in solid Form 1. The Y-axis of the DVS plot is change in mass. The X-axis of DVS plot refers to the percent relative humidity (RH) of the sample. Reference point 10 in FIG. 5 is the starting point of Form 2 in DVS experiment. The lower portion of the curve in FIG. 5 was obtained by measuring the change in mass of a ceftolozane sulfate sample in solid Form 2 while increasing relative humidity (RH) in the sample, starting at reference point 10 of the lower curve from reference point 10 (Form 2) and moving toward reference point 20 (Form 1). Based on the data collected, the ceftolozane sulfate in the sample converted from Form 2 to Form 1 when the sample was exposed to conditions between 50% RH (reference point 12) and 70% RH (reference point 15). Referring again to the lower curve in FIG. 5, ceftolozane sulfate in Form 1 is present in the sample from 70% RH to reference point 20, where the sample is ceftolozane sulfate is in crystalline Form 1. Referring to the upper curve in FIG. 5, from reference point 20 to reference point 30, the ceftolozane sulfate in the sample material remains as solid Form 1. From reference point 30 to around 20% RH (reference point 35 on the upper curve), the crystalline form of ceftolozane sulfate in the material transforms from Form 1 to Form 2. As the relative humidity of the sample was dropped below about 20% on the upper curve between reference point 30 and reference point 40 (0% RH), the ceftolozane sulfate became more amorphous, with some residual Form 2 remaining at reference point 40. […] Hygroscopicity of ceftolozane sulfate, Form 2 was assessed using the SMS DVS Intrinsic moisture sorption analyzer equipped with a calibrated Rotronic probe. […]

The structures appear in SMILES notation. Where a name gives a salt, the structure may show the parent alone.

Regarding `Cn1c(N)c(NC(=O)NCCN)c[n+]1CC1=C(C(=O)O)N2C(=O)[C@@H](NC(=O)/C(=N\OC(C)(C)C(=O)O)c3nsc(N)n3)[C@H]2SC1` [Ceftolozane sulfate, 5-amino-4-{[(2-aminoethyl)carbamoyl]amino}-2-{[(6R,7R)-7-({(2Z)-2-(5-amino-1,2,4-thiadiazol-3-yl)-2-[(1-carboxy-1-methylethoxy)imino]acetyl}amino)-2-carboxy-8-oxo-5-thia-1-azabicyclo[4.2.0]oct-2-en-3-yl]methyl}-1-methyl-1H-pyrazolium monosulfate], the “time the sample solution is stable” value in data set [1] is 5 h.

As for `Cn1c(N)c(NC(=O)NCCN)c[n+]1CC1=C(C(=O)[O-])N2C(=O)[C@@H](NC(=O)/C(=N\OC(C)(C)C(=O)O)c3nsc(N)n3)[C@H]2SC1` [Ceftolozane, (6R,7R)-3-[(5-amino-4-{[(2-aminoethyl)carbamoyl]amino}-1-methyl-1H-pyrazol-2-ium-2-yl)methyl]-7-({(2Z)-2-(5-amino-1,2,4-thiadiazol-3-yl)-2-[(1-carboxy-1-methylethoxy)imino]acetyl}amino)-8-oxo-5-thia-1-azabicyclo[4.2.0]oct-2-ene-2-carboxylate], the “purity of ceftolozane after 6-day stability test” value in data set [2] (aqueous ethanol solution, methods of U.S. Pat. No. 7,129,232) is “about 68%”; in data set [2] (process using isopropanol (Example 2a), liquid phase), “about 82%”. Besides, in data set [2] (aqueous ethanol solution, precipitation per U.S. Pat. No. 7,129,232), the “purity of ceftolozane at start of 6-day stability test” value is “about 97%”. Also, the “Time to Precipitate” value in data set [3] (ceftolozane sulfate 149 mg/g (free base 130 mg/g), with excipients) is more than 24 hours^a; in data set [3] (ceftolozane sulfate 172 mg/g (free base 150 mg/g), with excipients), more than 48 h; in data set [3] (ceftolozane sulfate 178 mg/g (free base 156 mg/g), last observation at 24 hour), more than 24 hours^1); in data set [3] (ceftolozane sulfate 189 mg/g (free base 165 mg/g), with excipients) it was less than 18 h; in data set [3] (ceftolozane sulfate 200 mg/g (free base 174 mg/g), with excipients), 2 h.

Consider `Cn1c(N)c(NC(=O)NCCN)c[n+]1CC1=C(C(=O)O)N2C(=O)[C@@H](NC(=O)/C(=N\OC(C)(C)C(=O)O)c3nsc(N)n3)[C@H]2SC1.O=S(=O)([O-])O` [Example 1, 7β-[(Z)-2-(5-amino-1,2,4-thiadiazol-3-yl)-2-(1-carboxy-1-methylethoxyimino)acetamido]-3-{3-amino-4-[3-(2-aminoethyl)ureido]-2-methyl-1-pyrazolio}methyl-3-cephem-4-carboxylic acid hydrogen sulfate], for which the “water content by weight” value in data set [4] is recorded as “about 26.3%”.

`Cn1c(N)c(NC(=O)NCCN)c[n+]1CC1=C(C(=O)O)N2C(=O)[C@@H](NC(=O)/C(=N\OC(C)(C)C(=O)O)c3nsc(N)n3)[C@H]2SC1` [ceftolozane sulfate Form 1]: in data set [5], the “relative humidity down to which Form 1 transforms to Form 2” value is on record as “around 20 % RH”.
